biological target: CDK-2 (Homo sapiens, UniProt P24941); experiment: Fluorescence polarization displacement assay (inhibitory effectiveness toward CDK-2); type: binding; conditions: IC50
Method: Fluorescence Polarization Assay
Binding assays were performed in a 384 well Costar NBS coated plate. […] The concentration of BMS-Alexa Fluor647 was 50 nM. Serial dilutions of compounds were added to 12 wells. The final buffer concentration was 10 mM Hepes, pH 7.5, 150 mM NaCl, and 1 mM DTT. Samples were incubated at room temperature for 15 minutes and then read in an Analyst HT instrument using an excitation and emission wavelength of 580 and 680 nm, respectively.

`COC(=O)[C@H](Cc1ccc(O)cc1)NC(=O)c1cc(C(=O)O)c2cc(CCc3ccc(Cl)cc3)ccc2n1` [Compound 9] and `CCCCCCc1ccc2nc(C(=O)N[C@@H](Cc3ccc(O)cc3)C(=O)OC)cc(C(=O)O)c2c1` [Compound 4] cannot be ordered by IC50: < 1 µM for the first, < 1 µM for the second.

`COC(=O)[C@H](Cc1cccc(O)c1)NC(=O)c1cc(C(=O)O)c2cc(-c3cccc(C(F)(F)F)c3)ccc2n1` [Compound 163] and `COC(=O)[C@@H](Cc1ccc(O)cc1)NC(=O)c1cc(C(=O)O)c2cc(-c3cccc(C(F)(F)F)c3)ccc2n1` [Compound 169] cannot be ordered by IC50: > 40 µM for the first, > 40 µM for the second.

First: COC(=O)[C@H](Cc1ccc(F)cc1)NC(=O)c1cc(C(=O)O)c2cc(-c3cccc(C(F)(F)F)c3)ccc2n1 [Compound 109]
Second: COC(=O)[C@H](Cc1ccc(OC)cc1)NC(=O)c1cc(C(=O)O)c2cc(-c3cccc(C(F)(F)F)c3)ccc2n1 [Compound 162]
The IC50 of the first is lower: 1 to 40 µM for the first, > 40 µM for the second.

`COC(=O)[C@H](Cc1ccc(O)cc1)NC(=O)c1cc(C(=O)O)c2cc(-c3ccccc3)ccc2n1` [Compound 73] and `COC[C@H](Cc1ccc(O)cc1)NC(=O)c1cc(C(=O)O)c2cc(/C=C/c3ccc(Cl)cc3)ccc2n1` [Compound 16] cannot be ordered by IC50: < 1 µM for the first, < 1 µM for the second.

same assay, conditions: inhibitory effectiveness toward CDK-2; read-out: IC50

First: COC[C@H](Cc1ccc(O)cc1)NC(=O)c1cc(C(=O)O)c2cc(OCc3ccc(C(F)(F)F)cc3)ccc2n1 [Compound 55]
Second: COC[C@H](Cc1ccc(O)cc1)NC(=O)c1cc(C(=O)O)c2cc(COc3ccc(Cl)cc3)ccc2n1 [Compound 199]
The IC50 of the first is lower: < 1 µM for the first, > 40 µM for the second. The first is the more potent here.

Going from `COC[C@H](Cc1ccc(O)cc1)NC(=O)c1cc(C(=O)O)c2cc(C#CCCO)ccc2n1` [Compound 186] to `CCCCCC#Cc1ccc2nc(C(=O)N[C@H](COC)Cc3ccc(O)cc3)cc(C(=O)O)c2c1` [Compound 19], the IC50 falls from > 40 µM to < 1 µM. The second is the more potent here.

Compared with `O=C(N[C@@H](Cc1ccc(O)cc1)c1nnn[nH]1)c1cc(C(=O)O)c2cc(-c3cccc(C(F)(F)F)c3)ccc2n1` [Compound 170], `COC[C@H](Cc1ccc(O)cc1)NC(=O)c1cc(C(=O)O)c2cc(-c3cccc(C(F)(F)F)c3)ccc2n1` [Compound 13] is lower in IC50: > 40 µM for the first, < 1 µM for the second.

Compared with `COC(=O)[C@H](Cc1ccc(O)cc1)NC(=O)c1cc(C(=O)O)c2cc(-c3cc(Cl)cc(Cl)c3)ccc2n1` [Compound 39], `COC(=O)[C@H](Cc1ccc(O)cc1)NC(=O)c1cc(C(=O)O)c2cc(-c3ccsc3)ccc2n1` [Compound 90] is higher in IC50: < 1 µM for the first, 1 to 40 µM for the second.

Compared with `COC(=O)[C@@H](NC(=O)c1cc(C(=O)O)c2cc(-c3cccc(C(F)(F)F)c3)ccc2n1)c1ccc(O)cc1` [Compound 122], `CO/N=C\[C@H](Cc1ccc(O)cc1)NC(=O)c1cc(C(=O)O)c2cc(-c3cccc(C(F)(F)F)c3)ccc2n1` [Compound 59] is lower in IC50: 1 to 40 µM for the first, < 1 µM for the second. The second is the more potent here.

`COC[C@H](Cc1ccc(O)cc1)NCc1cc(C(=O)OCCO)c2cc(-c3cccc(C(F)(F)F)c3)ccc2n1` [Compound 173] and `COC[C@H](Cc1ccc(O)cc1)NCc1cc(C(=O)OCC(O)CO)c2cc(-c3cccc(C(F)(F)F)c3)ccc2n1` (stereo partly drawn) [Compound 174] cannot be ordered by IC50: > 40 µM for the first, > 40 µM for the second.

First: COC(=O)[C@H](Cc1ccc(O)cc1)NC(=O)c1cc(C(=O)O)c2cc(/C=C/c3ccc(Cl)cc3)ccc2n1 [Compound 7]
Second: COC(=O)[C@H](Cc1ccc(O)cc1)NC(=O)c1cc(C(=O)O)c2cc(-c3cccc(O)c3)ccc2n1 [Compound 120]
The IC50 of the first is lower: < 1 µM for the first, 1 to 40 µM for the second.

`COC[C@H](Cc1ccc(O)cc1)NC(=O)c1cc(C(=O)O)c2cc(C#CCCn3cccn3)ccc2n1` [Compound 224] and `COC[C@H](Cc1ccc(O)cc1)NC(=O)c1cc(C(=O)O)c2cc(CCCCO)ccc2n1` [Compound 189] cannot be ordered by IC50: > 40 µM for the first, > 40 µM for the second.

`CCCCC/C=C/c1ccc2nc(C(=O)N[C@H](COC)Cc3ccc(O)cc3)cc(C(=O)O)c2c1` [Compound 21] and `CCCCCCCc1ccc2nc(C(=O)N[C@H](COC)Cc3ccc(O)cc3)cc(C(=O)O)c2c1` [Compound 20] cannot be ordered by IC50: < 1 µM for the first, < 1 µM for the second.

Going from `COC(=O)[C@H](Cc1ccc(O)cc1)NC(=O)c1cc(C(=O)O)c2cc(-c3ccc(OC(F)(F)F)cc3)ccc2n1` [Compound 3] to `COC(=O)[C@H](Cc1ccccc1)NC(=O)c1cc(C(=O)O)c2cc(-c3cccs3)ccc2n1` [Compound 155], the IC50 rises from < 1 µM to > 40 µM. The first is the more potent here.

`COC[C@H](Cc1ccc(O)cc1)NCc1cc(C(=O)OCCN(C)C)c2cc(-c3cccc(C(F)(F)F)c3)ccc2n1` [Compound 175] and `COC[C@H](Cc1ccc(O)cc1)NCc1cc(C(=O)OC[C@@H](N)C(C)C)c2cc(-c3cccc(C(F)(F)F)c3)ccc2n1` [Compound 176] cannot be ordered by IC50: > 40 µM for the first, > 40 µM for the second.

`CC(C)(C)S(=O)(=O)NCc1cc(C(=O)N[C@H](CN)Cc2ccc(O)cc2)nc2ccc(C#Cc3ccccn3)cc12` [Compound 225] and `COC[C@H](Cc1ccc(O)cc1)NC(=O)c1cc(C(=O)O)c2cc(-c3cccc(CN4CC[C@@H](O)C4)c3)ccc2n1` [Compound 192] cannot be ordered by IC50: > 40 µM for the first, > 40 µM for the second.

For `Cc1cnc([C@H](Cc2ccc(O)cc2)NCc2cc(C(=O)O)c3cc(-c4cccc(C(F)(F)F)c4)ccc3n2)o1` [Compound 45], the IC50 was < 1 µM.

Source: patent US7511063B2, “High affinity quinoline-based kinase ligands” (Schering Corporation, priority 2006, dated 2009)
